Test results as given in patent publication US10869873B2 (priority 2011, dated 2020).

What was measured:
HIV-1 NL4-3 = assay: HIV replication assay in TZM-b1 cells, luciferase; format: cell-based; settings: for antiviral effect on HIV replication: HIV-1 infected TZM-b1 cells treated daily with serial dilutions for 4 days; for EC50: Human immunodeficiency virus 1, NL43, TZM-b1, 96 h, read-out: EC50, HIV replication
[1] = system: HeLa-derived TZM-b1 cells; assay: Viability of HIV-1 infected TZM-b1 cells; format: cell-based, human; settings: HIV-1 infected TZM-b1 cells treated daily for 4 days
Source text: To test the hypothesis that AAK1 and GAK are important for HIV infection, HeLa-derived TZM-b1 cells were used, which express CD4, CCR5 and CXCR4, as well as β-galactosidase and firefly luciferase reporter genes responsive to HIV transcription (Wei et al., Antimicrobial agents and chemotherapy 46:1896-1905, 2002). Cells were transfected with siRNAs targeting AAK1, GAK or a NT sequence followed by infection with the infectious HIV-1 NL4-3 clone (Adachi et al., J Virol 59:284-291, 1986), as described (Zhou et al., Cell Host & Microbe 4:495-504, 2008). Luciferase activity was measured at 96 hr postinfection.
Following 24, 48, and 72 hrs of treatment with inhibitory compounds or silencing with siRNAs, cells were incubated for 2-4 hrs at 37° C. in the presence of 10% AlamarBlue reagent (TREK Diagnostic Systems), as described (Einav et al., Nature Biotechnology 26, 1019-1027, 2008). Plates were then scanned and fluorescence was detected by using FLEXstation II 384 (Molecular Devices, Inc.).

core-AP2M1 binding = assay: Core-AP2M1 co-immunoprecipitation in membranes of HCV infected Huh-7.5 cells; format: cell-based, HCV core / human AP2M1; settings: membranes of Huh-7.5 cells infected with J6/JFH, 100 nM calyculin-A
Procedure: To determine whether core binds AP2M1 in the context of authentic HCV infection, co-immunoprecipitation assays in membrane fractions prepared from Huh-7.5 cells infected with cell culture-grown HCV (J6/JFH) were performed (Lindenbach et al., Science 309:623-626, 2005). AP2M1 could bring down core when anti-AP2M1 antibodies but not IgG controls were added to the membrane lysates. […] (FIG. 2D). […] Colocalization of core with AP2M1 in Huh-7.5 cells 72 hr following electroporation with J6/JFH HCV RNA was also investigated.
Membranes were prepared from ˜20×10^6 Huh-7.5 cells infected with HCV (J6/JFH) (Lindenbach, et al., Science 309, 623-626, 2005), as previously described (Einav et al., J Virol 78, 11288-11295, 2004). Briefly, cells were collected by trypsinization, washed once with PBS and resuspended in HME buffer (20 mM HEPES [pH 7.4], 1 mM EDTA, 2 mM MgCl2), supplemented with phenylmethylsulfonyl fluoride to a final concentration of 1 mM and a protease inhibitors cocktail (Sigma). Cells were lysed by two cycles of freeze-thaw in dry ice-ethanol and then passaged through a 27.5-gauge needle 10 times. Nuclei were removed by centrifugation at 250×g for 10 min, and the postnuclear supernatant was subjected to ultracentrifugation at 100,000×g for 30 min to obtain the membrane preparation. All steps were done at 4° C. […] Immunoprecipitates were analyzed by western blotting. […]

| Compound | antiviral effect on HIV replication (HIV-1 NL4-3) | effect on viability [1] | binding of core to AP2M1 (co-immunoprecipitation) (core-AP2M1 binding) | EC50 (HIV-1 NL4-3) [µM] |
| --- | --- | --- | --- | --- |
| CO[C@@H]1[C@H](N(C)C(=O)c2ccccc2)C[C@H]2O[C@]1(C)n1c3ccccc3c3c4c(c5c6ccccc6n2c5c31)C(=O)NC4 [PKC-412] | significant dose response antiviral effect | no effect on viability |  |  |
| COC[C@@H]([C@H](O)[C@H](O)C(=O)NCC[C@H](C)c1nc(/C=C/C[C@@H]2O[C@]3(C[C@@H](O)[C@@H]2C)O[C@H]([C@H](C[C@H](O)[C@H](C)[C@H](O)[C@H](C)/C=C(C)/C(C)=C/C=C/C(C)=C\C#N)OC)[C@H](OP(=O)(O)O)C3(C)C)co1)N(C)C [calyculin A] |  |  | significantly augmented |  |
| C#Cc1cccc(Nc2ncnc3cc(OCCOC)c(OCCOC)cc23)c1 [erlotinib] | significant dose response antiviral effect | no effect on viability |  | 1.4 ± 0.3 |
| CCN(CC)CCNC(=O)c1c(C)[nH]c(/C=C2\C(=O)Nc3ccc(F)cc32)c1C [sunitinib] |  | no effect on viability |  | 0.8 ± 0.4 |
